Measured values reported in patent publication EP4793275A1, “AT2R ANTAGONIST AND USE THEREOF” (Hubei Bio-Pharmaceutical Industrial Technological Institute …, priority 2023, dated 2025).

Experiments:
AT2R = target: T1, AT2R (Homo sapiens, UniProt P50052); experiment: Binding assay of compounds to AT2R (Tag-lite HTRF ligand binding kit); conditions: labeled cells, Tag-lite red fluorescent labeled ligand, 1 hour at room temperature
T1 construct: purchased Cisbio C1TT1AT2
T1 sequence (P50052 1-363): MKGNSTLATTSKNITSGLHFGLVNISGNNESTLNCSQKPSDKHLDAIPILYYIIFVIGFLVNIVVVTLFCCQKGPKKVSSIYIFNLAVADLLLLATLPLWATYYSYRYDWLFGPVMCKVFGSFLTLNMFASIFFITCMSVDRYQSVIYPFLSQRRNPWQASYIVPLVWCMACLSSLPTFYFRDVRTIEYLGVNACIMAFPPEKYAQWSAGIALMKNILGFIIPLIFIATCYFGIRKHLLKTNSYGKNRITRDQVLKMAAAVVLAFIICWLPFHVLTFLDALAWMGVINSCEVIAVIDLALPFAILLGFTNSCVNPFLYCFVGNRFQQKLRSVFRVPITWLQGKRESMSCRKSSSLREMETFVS
Procedure: The assay was performed in accordance with the manufacturer instructions of Angiotensin AT2 Receptor Ligand Binding Assay Kit (#C1TT1AT2, Cisbio). First, a 10 mM compound stock solution was diluted in a gradient at a 5× dilution ratio (including 10 concentrations, each with two replicates). 160 nL of compounds at different concentrations was added to a 384-well plate. 40 µL of 1× TLB was added to each well, and the mixture was shaken at room temperature for 15 minutes. A 15 mL centrifuge tube added with 5 mL of 1×TLB was prepared in advance. The frozen labeled cells were thawed in a water bath at 37°C (for 1 to 2 minutes), and the thawed cells were quickly transferred to the above 15 mL centrifuge tube. The mixture was mixed well and centrifuged at 1,000 g at room temperature for 5 minutes. The supernatant was removed, and the cells were resuspended by adding 2.7 mL 1× TLB. A new 384-well plate was taken, and 10 µL of mixed cells were added into the corresponding wells according to the assay design. 5 µL of 4× compound solution and 5 µL of 4× Tag-lite red fluorescent labeled ligand were added to each well. After incubation at room temperature for 1 hour, data was read using EnVision with an HTRF mode. The excitation light intensities at 665nM and 615nM in each well were read respectively, and the ratio was calculated (Ratio=A665nM/B615nM). The IC50 value was calculated by means of GraphPad Prism8 software, where X represents logarithmic value of compound concentration; and Y represents ratio of A665nM/B615nM. [Table 1] Binding activity of compounds to AT2R

[1] = Pharmacokinetic test in rats; assay type: in vivo; conditions: rat; male SD rats, oral administration by gavage, 10 mg/kg, plasma
Procedure: For the pharmacokinetic test of rats, 3 male SD rats (180 g to 240 g) were employed and fasted overnight. The rats were orally administered a dose of 10 mg/kg by gavage. Blood was collected before the administration, and at 15 minutes, 30 minutes, 1 hour, 2 hours, 4 hours, 6 hours, 8 hours, and 24 hours after the administration. The blood samples were centrifuged at 8,000 rpm and at 4°C for 6 minutes, and plasma was collected and stored at -20°C. The plasma at each time point was taken and mixed with 3 to 5 volumes of an acetonitrile solution containing an internal standard. The mixture was vortexed for 1 minute, and centrifuged at 13,000 rpm and at 4°C for 10 minutes. The supernatant was collected and mixed with 3 volumes of water. An appropriate amount of the mixture was taken for LC-MS/MS analysis. The main pharmacokinetic parameters were analyzed by a non-compartmental model using WinNonlin 7.0 software. [Table 2] Results of Pharmacokinetic Test in Rats

hERG potassium channel = target: T2, hERG potassium channel (Homo sapiens, UniProt Q12809); experiment: Effects on hERG channel currents by manual patch-clamp; assay type: cell-based; conditions: HEK-293 cell line stably expressing hERG potassium channel, tail current, room temperature; read-out: IC50 (inhibitory effects on hERG)
T2 construct: host or cells: HEK-293
T2 sequence (Q12809 whole entry): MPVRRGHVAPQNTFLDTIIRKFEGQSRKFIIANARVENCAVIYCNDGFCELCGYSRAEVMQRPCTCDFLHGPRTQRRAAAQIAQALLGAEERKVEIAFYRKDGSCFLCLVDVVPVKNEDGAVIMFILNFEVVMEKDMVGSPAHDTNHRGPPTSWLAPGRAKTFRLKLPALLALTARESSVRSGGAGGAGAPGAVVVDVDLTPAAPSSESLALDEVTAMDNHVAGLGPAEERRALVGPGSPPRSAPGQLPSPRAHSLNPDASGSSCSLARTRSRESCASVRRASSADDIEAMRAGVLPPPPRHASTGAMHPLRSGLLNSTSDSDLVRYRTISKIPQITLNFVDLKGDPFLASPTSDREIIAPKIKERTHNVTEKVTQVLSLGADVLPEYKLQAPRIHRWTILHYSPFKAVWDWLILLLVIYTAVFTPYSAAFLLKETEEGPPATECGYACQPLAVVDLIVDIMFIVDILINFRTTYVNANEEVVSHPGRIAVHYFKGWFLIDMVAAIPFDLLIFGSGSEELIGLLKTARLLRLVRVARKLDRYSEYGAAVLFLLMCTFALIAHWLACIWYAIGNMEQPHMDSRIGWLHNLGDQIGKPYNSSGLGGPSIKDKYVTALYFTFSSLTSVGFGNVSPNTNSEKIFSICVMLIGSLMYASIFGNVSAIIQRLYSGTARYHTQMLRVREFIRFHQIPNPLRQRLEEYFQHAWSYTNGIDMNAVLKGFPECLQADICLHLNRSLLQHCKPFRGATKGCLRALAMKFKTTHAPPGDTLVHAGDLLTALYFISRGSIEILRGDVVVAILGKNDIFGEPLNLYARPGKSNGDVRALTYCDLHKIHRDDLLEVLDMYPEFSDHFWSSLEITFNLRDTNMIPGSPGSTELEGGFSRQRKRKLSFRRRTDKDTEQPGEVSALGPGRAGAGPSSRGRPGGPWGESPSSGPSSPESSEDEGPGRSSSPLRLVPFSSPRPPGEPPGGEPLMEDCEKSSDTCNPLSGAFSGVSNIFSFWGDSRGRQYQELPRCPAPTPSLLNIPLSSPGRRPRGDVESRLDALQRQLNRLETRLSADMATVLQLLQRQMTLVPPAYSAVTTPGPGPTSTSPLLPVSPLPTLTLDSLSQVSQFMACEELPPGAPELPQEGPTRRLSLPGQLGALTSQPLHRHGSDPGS
Procedure: A manual patch-clamp assay was conducted using an HEK-293 cell line stably expressing an hERG potassium channel. hERG potassium channel cells were purchased from Creacell Co., Ltd. (catalog No.: A-0320). Final concentrations of test compounds were freshly prepared on the day of the assay, and then the test compounds were dissolved in an extracellular solution. The extracellular solution (mM) was: […], 3.5 mM KCl, 1 mM MgCl2·6H2O, 2 mM CaCl2·2H2O, 10 mM D-Glucose, 10 mM HEPES, 1.25 mM NaH2PO4·2H2O; pH 7.4 (titrated with NaOH). An intracellular solution (mM) was: 20 mM KCl, 115 mM K-Aspartic, 1 mM MgCl2·6H2O, 5 mM EGTA, 10 mM HEPES, 2 mM Na2-ATP; pH 7.4 (titrated with KOH).
Electrophysiological Assay: After whole-cell patch-clamp formation, the cell membrane potential was clamped at -80 mV. The holding potential was depolarized to -50 mV from -80 mV and maintained for 0.5 seconds (for leak current detection), then stepped to 30 mV for 2.5 seconds, and then rapidly repolarized back to -50 mV for 4 seconds to elicit a tail current of the hERG channel. Data was collected repeatedly every 10 seconds to observe the effects of the drug on hERG tail current (Peak tail currentcompound). A stimulation at -50 mV for 0.5 seconds was used for the leak current detection. Drug administration was initiated after the hERG current recorded in the whole-cell configuration stabilized. After each drug concentration was applied for 5 minutes (or until the current stabilized), the next concentration was tested. One or more concentrations were tested for each test compound. A current detected in each cell in a compound-free extracellular solution (Peak tail currentControl) served as an internal control for the corresponding cell. […]
Data Analysis: The inhibition rate corresponding to each drug concentration was calculated (1-(Peak tail currentcompound/Peak tail currentControl)), and the concentration-response curves were fitted using nonlinear regression in GraphPad Prism software. The IC50 value of each compound was calculated using the following equation: Y=1/(1+10^((LogIC50-X)×HillSlope)). […]

[2] = Pharmacokinetic test in canines; assay type: in vivo; conditions: dog; male Beagle canines, oral gavage, 5 mg/kg, plasma
Procedure: For the pharmacokinetic test of canines, 3 male Beagle canines (10 kg to 12 kg) were employed and fasted overnight. The canines were orally administered a dose of 5 mg/kg by gavage. Blood was collected before the administration, and at 5 minutes, 15 minutes, 30 minutes, 1 hour, 2 hours, 4 hours, 6 hours, 8 hours, and 24 hours after the administration. The blood samples were centrifuged at 6,000 g and at 2°C to 8°C for 3 minutes, and plasma was collected and stored at -20°C. The plasma at each time point was taken and mixed with 10 volumes of a 50% methanol in acetonitrile solution containing an internal standard. The mixture was vortexed for 5 minutes, and centrifuged at 4,000 rpm and at 4°C for 5 minutes. The supernatant was collected and mixed with 1 volume of water. An appropriate amount of the mixture was taken for LC-MS/MS analysis. The main pharmacokinetic parameters were analyzed by a non-compartmental model using WinNonlin 7.0 software. [Table 3] Results of Pharmacokinetic Test in Canines

Compound | IC50 (AT2R) [nM] | AUC(0-t) [1] [ng·h/mL] | Cmax [1] [ng/mL] | IC50 (hERG potassium channel) [nM] | AUC(0-t) [2] [ng·h/mL] | Cmax [2] [ng/mL]
Cc1nnc(CN2CCN(c3cc(CC(C)C)cc(C(F)F)c3-c3nn[nH]n3)C[C@@H]2C)s1 [Compound I-7, (2S)-4-(3-(difluoromethyl)-2-(3H-1,2,3,4-tetrazol-5-yl)-5-isobutylphenyl)-2-methyl-1-((5-methyl-1,3,4-thiadiazol-2-yl)methyl)piperazine] | 8 | – | – | – | – | –
CC(C)Cc1cc(C(F)F)c(-c2nn[nH]n2)c(N2CCN(Cc3cccnn3)[C@@H](C)C2)c1 [Compound I-4, (S)-3-((4-(3-(difluoromethyl)-5-isobutyl-2-(2H-tetrazol-5-yl)phenyl)-2-methylpiperazin-1-yl)methyl)pyridazine] | 4.1 | 14100 | 4380 | > 30000 | – | –
Cc1nnc(CN2CCN(c3cc(CC(C)C)cc(OC(F)F)c3-c3nn[nH]n3)C[C@@H]2C)s1 [Compound I-8, (2S)-4-(3-((difluoromethyl)oxy)-2-(3H-1,2,3,4-tetrazol-5-yl)-5-isobutylphenyl)-2-methyl-1-((5-methyl-1,3,4-thiadiazol-2-yl)methyl) piperazine] | 2.5 | – | – | – | – | –
CC(C)Cc1cc(OC(F)F)c(-c2nn[nH]n2)c(N2CCN(Cc3cccnn3)[C@@H](C)C2)c1 [Compound I-5, (S)-3-((4-(3-(difluoromethoxy)-5-isobutyl-2-(2H-tetrazol-5-yl)phenyl)-2-methylpiperazin-1-yl)methyl)pyridazine] | 2.4 | – | – | 22800 | 2290 | 1320
CC(C)Cc1cc(F)c(-c2nn[nH]n2)c(N2CCN(Cc3cccnn3)[C@@H](C)C2)c1 [Control Compound I, reference compound] | 12 | 10000 | 3240 | 2800 | 1300 | 850
CC(C)Cc1cc(OC(F)(F)F)c(-c2nn[nH]n2)c(N2CCN(Cc3cccnn3)[C@@H](C)C2)c1 [Compound I-6, (S)-3-((4-(5-isobutyl-2-(2H-tetrazol-5-yl)-3-(trifluoromethoxy)phenyl)-2-methylpiperazin-1-yl)methyl)pyridazine] | 3.6 | – | – | – | – | –
